{"source": "patent US20200197385A1", "about": "“THERAPEUTIC AGENT FOR CANCER CONTAINING AXL INHIBITOR AS ACTIVE INGREDIENT” (ONO PHARMACEUTICAL CO., LTD., priority 2017, published 2020)", "key": {"[1]": {"test_system": "human acute myeloid leukemia cell line CMK-11-5", "assay": "In vitro combined use test, Cell Counting Kit-8", "assay_type": "cell-based", "conditions": "72 hours", "protocol": "A human acute myeloid leukemia cell line CMK-11-5 was prepared in an RPMI medium containing 10% FBS (10% FBS-RPMI medium) at about 30000 cells/mL, and seeded in a 96 well plate at 50 μL/well. To this, 10% FBS-RPMI medium containing ABBV-075 having 4 times higher concentration than the final concentration was added at 25 μL/well. Furthermore, 10% FBS-RPMI medium containing the compound A having 4 times higher concentration than the final concentration was added at 25 μL/well (final volume: 100 μL/well DMSO concentration: 0.2%). The plate was incubated at 37° C. in humidified air including 5% CO2 for 72 hours. After culturing, absorbance at 450 nm of a formazan product, proportional to the number of living cells, was measured using Cell Counting Kit-8. Percentage (%) of absorbance at 450 nm of each compound-treated group with respect to absorbance at 450 nm of the vehicle group was calculated."}, "[2]": {"test_system": "leukemia cells in bone marrow derived from patient with acute myeloid leukemia", "assay": "Reduction test, bone marrow sample of acute myeloid leukemia patient, compound A combined with anticancer drugs", "assay_type": "cell-based, human", "conditions": "96 hours, Ci<1 synergistic action", "protocol": "(§1) Initial evaluation: Bone marrow samples were obtained from an adult acute myeloid leukemia patient. […] Furthermore, to evaluate the initial survival rate of cells, Annexin V was added to the above-mentioned combination of MAb.\nThe plate containing the sample was incubated at 37° C. in humidified air including 5% CO2 for 96 hours. In order to prepare a sample for analysis, erythrocytes were lysed after completion of incubation, and then, the sample was stained with the best combination of Mab and Annexin V to identify the leukemia cells in the sample. Finally, the plate was analyzed by ExviTech (registered trademark) platform.\nNote here that the meaning of the Ci value is regarded as follows.\n(§2) Ci<1: synergistic action, Ci=1: additive action, Ci>1: antagonistic action"}, "[3]": {"test_system": "human acute lymphatic leukemia cell line CCRF-HSB-2", "assay": "In vitro combined use test, Cell Titer-Glo", "assay_type": "cell-based", "conditions": "72 hours", "protocol": "A human acute lymphatic leukemia cell line CCRF-HSB-2 was prepared in an IMDM medium containing 10% FBS (10% FBS-IMDM medium) at about 200000 cells/mL, and seeded in a 96 well plate at 50 μL/well. […] The plate was incubated at 37° C. in humidified air including 5% CO2 for 72 hours. After culturing, relative luminescence unit (RLU), proportional to cellular endogenous ATP amount, was measured by Cell Titer-Glo Luminescent Cell Viability Assay (registered trademark). Percentage (%) of RLU of each compound-treated group relative to RLU of the vehicle group was measured."}, "[4]": {"test_system": "leukemia cells in bone marrow derived from patient with acute myeloid leukemia", "assay": "Proliferation test (CFDA-SE), bone marrow sample of acute myeloid leukemia patient, compound A combined with anticancer drugs", "assay_type": "cell-based, human", "conditions": "96 hours, Ci<1 synergistic action", "protocol": "as §1\nProliferation test: Proliferation was measured using a CFDA-SE coloring agent. A coloring agent which had been prepared in advance was placed in 15-mL tube including bone marrow enough to obtain about 6000 cells/well of living leukemia cells. Thereafter, they were diluted with the medium such that the total volume became 1 mL. After the resultant product was mixed well by vortex, the mixture was incubated on a rotator at room temperature with light shielded for 10 minutes. Then, the tube was filled with cool RPMI1640 including 10% FBS (medium 2), and incubated on ice for 5 minutes to stop the reaction. Thereafter, the cells were washed with the medium 2 twice. For the final re-suspension before plating and incubation, the medium 1 replenished with a cytokine cocktail was used. […] The plate containing the sample was incubated at 37° C. in humidified air including 5% CO2 for 96 hours. In order to prepare a sample for analysis, erythrocytes were lysed after completion of incubation, and then, the sample was stained with the best combination of Mab and Annexin V to identify the leukemia cells in the sample. Finally, the plate was analyzed by ExviTech (registered trademark) platform.\nData analysis: Synergistic analysis was carried out by calculating Combination Index (Ci) as described in Cancer Research, Vol. 70, No. 2, pp. 440-446, 2010. […] Note here that the meaning of the Ci value is regarded as follows.\nas §2"}, "[5]": {"test_system": "mouse pancreatic cancer cell line Pan02 orthotopic implantation model", "assay": "Antitumor action, orthotopic transplantation model, survival", "assay_type": "in vivo", "conditions": "Pan02 orthotopic implantation mice; compound A 20 mg/kg/day via the diet; gemcitabine 60 mg/kg i.p. twice a week; Day 0 to Day 95", "protocol": "For the compound A, mouse feed CRF-1 containing 0.013% compound A was manufactured by Oriental Yeast Co., Ltd. so as to be administered in 20 mg/kg/day as administration via the diet. Gemcitabine was obtained from Wako Pure Chemical Industries, Ltd. C57/BL6 mouse pancreatic cancer cell line Pan02 was transplanted into the pancreas of the same type syngeneic mice (C57/BL6, female, 6-week old (Charles River Laboratories Japan, Inc.)) to produce Pan02 orthotopic implantation mice. On day 7 after transplantation, based on the body weight, the mice were assigned to four groups, i.e., a vehicle group, a gemcitabine group, compound A group, a combined use group of gemcitabine+compound A, and the compound A (each n=8 to 9). The day on which group assignment was carried out was defined as Day 0. To the vehicle group and the compound A group, PBS (10 mL/kg, twice a week) was intraperitoneally administered. To the gemcitabine group and a combined use group of gemcitabine+compound A, gemcitabine (60 mg/10 mL/kg, twice a week) was administered by intraperitoneal administration. To the compound A group and the combined use group of gemcitabine+compound A, CRF-1 containing 0.013% compound A was fed from Day 0. From Day 0 to Day 95, the survival time of each mouse in each group was evaluated. […]"}}, "data": [{"compound": "CCS(=O)(=O)Nc1ccc(Oc2ccc(F)cc2F)c(-c2cn(C)c(=O)c3[nH]ccc23)c1", "note": "[ABBV-075]", "values": [{"measurement": "absorbance at 450 nm in combined use with compound A compared with single use of each agent", "setting": "[1]", "result": "lowered"}]}, {"compound": "COc1cc(C(=O)O)ccc1NC(=O)[C@@H]1N[C@@H](CC(C)(C)C)[C@](C#N)(c2ccc(Cl)cc2F)[C@H]1c1cccc(Cl)c1F", "note": "[Idasanutlin, idasanutlin]", "values": [{"measurement": "Ci median value in combined use with compound A", "setting": "[2]", "result": 0.719}]}, {"compound": "Nc1ccn([C@@H]2O[C@H](CO)[C@@H](O)[C@@H]2O)c(=O)n1", "note": "[Cytarabine, cytarabine]", "values": [{"measurement": "Ci median value in combined use with compound A", "setting": "[3]", "result": 0.696}, {"measurement": "RLU in combined use with compound A compared with single use of each agent", "setting": "[3]", "result": "lowered"}]}, {"compound": "COc1cccc2c1C(=O)c1c(O)c3c(c(O)c1C2=O)C[C@@](O)(C(C)=O)C[C@@H]3O[C@H]1C[C@H](N)[C@H](O)[C@H](C)O1", "note": "[Daunorubicin, daunorubicin]", "values": [{"measurement": "Ci median value in combined use with compound A", "setting": "[3]", "result": 0.936}, {"measurement": "RLU in combined use with compound A compared with single use of each agent", "setting": "[3]", "result": "lowered"}]}, {"compound": "CC[C@@H]1C(=O)N(C)c2cnc(Nc3ccc(C(=O)N[C@H]4CC[C@H](N5CCN(CC6CC6)CC5)CC4)cc3OC)nc2N1C(C)C", "note": "[Volasertib, volasertib]", "values": [{"measurement": "Ci median value in combined use with compound A", "setting": "[4]", "result": 0.830}]}, {"compound": "CCCCc1nc2cc(/C=C/C(=O)NO)ccc2n1CCN(CC)CC", "note": "[Plasinostat, plasinostat]", "values": [{"measurement": "Ci median value in combined use with compound A", "setting": "[2]", "result": 0.440}]}, {"compound": "CO[C@@H]1[C@H](N(C)C(=O)c2ccccc2)C[C@H]2O[C@]1(C)n1c3ccccc3c3c4c(c5c6ccccc6n2c5c31)C(=O)NC4", "note": "[Midostaurin, midostaurin]", "values": [{"measurement": "Ci median value in combined use with compound A", "setting": "[4]", "result": 0.673}]}, {"compound": "Nc1ccn([C@@H]2O[C@H](CO)[C@@H](O)C2(F)F)c(=O)n1", "note": "[Gemcitabine, gemcitabine]", "values": [{"measurement": "Median value of survival days", "setting": "[5]", "result": 67, "unit": "days"}]}, {"compound": "COc1cc2nccc(Oc3ccc(NC(=O)c4cc5c(n(-c6ccccc6)c4=O)CCCC5=O)nc3)c2cc1OC", "note": "[Compound A, N-{5-[(6,7-dimethoxy-4-quinolinyl)oxy]-2-pyridinyl}-2,5-dioxo-1-phenyl-1,2,5,6,7,8-hexahydro-3-quinolinecarboxamide]", "values": [{"measurement": "Median value of survival days", "setting": "[5]", "result": 54, "unit": "days"}]}, {"compound": "CCc1nc(C(N)=O)c(Nc2ccc(N3CCC(N4CCN(C)CC4)CC3)c(OC)c2)nc1NC1CCOCC1", "note": "[Gilteritinib, gilteritinib]", "values": [{"measurement": "Ci median value in combined use with compound A", "setting": "[4]", "result": 0.495}]}, {"compound": "C[C@@H]1C[C@H]2[C@@H]3CCC4=CC(=O)C=C[C@]4(C)[C@@]3(F)[C@@H](O)C[C@]2(C)[C@@]1(O)C(=O)CO", "note": "[Dexamethasone, dexamethasone]", "values": [{"measurement": "Ci median value in combined use with compound A", "setting": "[3]", "result": 0.589}]}]}
